Experiments:
Format in all cases: ADME, cell-based
Settings in all cases: human
A549 [1] = experiment: Metabolic stability in A549 cells assessed as rate of prodrug loss in anoxic condition
A549 [2] = experiment: Metabolic stability in A549 cells assessed as rate of 6-thioguanine production in anoxic condition
A549 [3] = experiment: Metabolic stability in A549 cells assessed as rate of 6-thioguanine production in aerobic condition
A549 [4] = experiment: Metabolic stability in A549 cells assessed as rate of prodrug loss in aerobic condition

| Activity (A549 [1]) | Activity (A549 [2]) | Activity (A549 [3]) | Activity (A549 [4]) | Structure (SMILES) |
| --- | --- | --- | --- | --- |
| 100 nM/min | 72 nM/min | 1.7 nM/min | 9.5 nM/min | CC(C)(Sc1nc(N)nc2[nH]cnc12)c1ccc([N+](=O)[O-])cc1 |
| 39 nM/min | 0 nM/min | 1.7 nM/min | 0 nM/min | Nc1nc(SCc2ccc([N+](=O)[O-])cc2)c2nc[nH]c2n1 |

— ChEMBL document CHEMBL1140001, “Hypoxia-driven elimination of thiopurines from their nitrobenzyl prodrugs” (Bioorg Med Chem Lett, 2007)
